Reference: PubChem BioAssay AID2060888 (Molecular Pharmacology Branch, DTP, NCI, 2025)
Where “and” joins values, the source holds several entries; their conditions need not be identical. Identical values can stand only once. Blank lines part the entries; values can stand above or below the compound they belong to.

Test system: 695427-040-R-J1-PDC complex spheroid viability
Assay: Anticancer human tumor 695427-040-R-J1-PDC patient-derived colon adenocarcinoma cell line growth inhibition [RAS]
Settings: for viability, T/C: stronger effect = lower value
Method in brief: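 Agents were tested in combination matrices in half-log decrements from a top concentration at or near clinical Cmax (10 microM if undetermined). Targets were multi-cell spheroids of tumour lines plus HUVEC and MSC stromal cells.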
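Further: viability read after seven days of drug exposure.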
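Wherever viability, T/C is given: 100% = DMSO vehicle control viability.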

- IC50 (curve of first compound, second compound 0.000949 µM): > 1000 nM
- IC50 (curve of first compound, second compound 0.003 µM): > 1000 nM
- IC50 (curve of first compound, second compound 0.00949 µM): > 1000 nM
- IC50 (curve of first compound, second compound 0.03 µM): > 1000 nM
- IC50 (curve of first compound, second compound 0.0949 µM): > 1000 nM
- IC50 (curve of first compound, second compound 0.3 µM): > 1000 nM
Compound: Nc1ccn(C2OC(CO)C(O)C2(F)F)c(=O)n1 (centres undefined) + CCn1c(-c2cccnc2C(C)OC)c2c3cc(ccc31)N1CCOC(CC(NC(=O)C(C(C)C)N(C)C(=O)C3(F)CCN(C(=O)C#CC(C)(C)N(C)C)CC3)C(=O)N3CCCC(N3)C(=O)OCC(C)(C)C2)C1
- viability, T/C (second compound 0.000949 µM, first compound 0.00316 µM): 92.7%
- viability, T/C (second compound 0.000949 µM, first compound 0.01 µM): 106%
- viability, T/C (second compound 0.000949 µM, first compound 0.0316 µM): 98.3%
- viability, T/C (second compound 0.000949 µM, first compound 0.1 µM): 82%
- viability, T/C (second compound 0.000949 µM, first compound 0.316 µM): 77.3%
- viability, T/C (second compound 0.000949 µM, first compound 1 µM): 67.5%
- viability, T/C (second compound 0.003 µM, first compound 0.00316 µM): 79.4%
- viability, T/C (second compound 0.003 µM, first compound 0.01 µM): 98%
- viability, T/C (second compound 0.003 µM, first compound 0.0316 µM): 87.3%
- viability, T/C (second compound 0.003 µM, first compound 0.1 µM): 71%
- viability, T/C (second compound 0.003 µM, first compound 0.316 µM): 83.5%
- viability, T/C (second compound 0.003 µM, first compound 1 µM): 58.6%
- viability, T/C (second compound 0.00949 µM, first compound 0.00316 µM): 98.3%
- viability, T/C (second compound 0.00949 µM, first compound 0.01 µM): 74.3%
- viability, T/C (second compound 0.00949 µM, first compound 0.0316 µM): 87.2%
- viability, T/C (second compound 0.00949 µM, first compound 0.1 µM): 64.8%
- viability, T/C (second compound 0.00949 µM, first compound 0.316 µM): 82.7%
- viability, T/C (second compound 0.00949 µM, first compound 1 µM): 63.5%
- viability, T/C (second compound 0.03 µM, first compound 0.00316 µM): 83%
- viability, T/C (second compound 0.03 µM, first compound 0.01 µM): 99%
- viability, T/C (second compound 0.03 µM, first compound 0.0316 µM): 83.5%
- viability, T/C (second compound 0.03 µM, first compound 0.1 µM): 75.9%
- viability, T/C (second compound 0.03 µM, first compound 0.316 µM): 83.1%
- viability, T/C (second compound 0.03 µM, first compound 1 µM): 74.2%
- viability, T/C (second compound 0.0949 µM, first compound 0.00316 µM): 80%
- viability, T/C (second compound 0.0949 µM, first compound 0.01 µM): 94.6%
- viability, T/C (second compound 0.0949 µM, first compound 0.0316 µM): 99.6%
- viability, T/C (second compound 0.0949 µM, first compound 0.1 µM): 73.5%
- viability, T/C (second compound 0.0949 µM, first compound 0.316 µM): 77.8%
- viability, T/C (second compound 0.0949 µM, first compound 1 µM): 62.2%
- viability, T/C (second compound 0.3 µM, first compound 0.00316 µM): 63.5%
- viability, T/C (second compound 0.3 µM, first compound 0.01 µM): 97.8%
- viability, T/C (second compound 0.3 µM, first compound 0.0316 µM): 80.8%
- viability, T/C (second compound 0.3 µM, first compound 0.1 µM): 79.3%
- viability, T/C (second compound 0.3 µM, first compound 0.316 µM): 78.7%
- viability, T/C (second compound 0.3 µM, first compound 1 µM): 65.7%

- IC50 (curve of compound): 2170 nM and 1960 nM and 1820 nM
Compound: CCC(CC)c1cc(NC2CCC(N)C2)n2nccc2n1 (centres undefined)
- viability, T/C (compound 0.0316 µM): 104% [middle of 4 runs]
- viability, T/C (compound 0.1 µM): 96.3% [middle of 4 runs]
- viability, T/C (compound 0.316 µM): 106% (2×) and 127% and 91%
- viability, T/C (compound 1 µM): 108% [middle of 4 runs]
- viability, T/C (compound 3.16 µM): 15.6% [middle of 4 runs]
- viability, T/C (compound 10 µM): 12.6% [middle of 4 runs]
